Consider 3 molecules from patent EP0362382A1, “METHOD OF STERILIZING PLANT POLLEN” (VSESOJUZNY NAUCHNO-ISSLEDOVATELSKY INST. SELSKOKHOZYAISTV. …, priority 1988, dated 1989).

In one data set the test system is Sonnenblume. Kind of data set: Field test of chemical sterilisation of sunflower pollen. It is filed as in vivo. To be noted: Linie BK-364 (WK-364); V. Periode der Organogenese; Beispiel 80: 2%ige, 81: 0,2%ige Emulsion. From the text: Die gametozide Aktivitat der erfindungsgemäßen Sterilisationsmittel war im Feldversuch in verschiedenen bodenklimatischen Zonen mit Teilstücken von 10 m^2 Größe in drei- bis viermaliger Wiederholung festgestellt. Jedes Sterilisationsmittel wurde mindenstens 5 Jahre lang geprüft.
Die Entwicklung der Perioden der Organogenese wird zytologisch überwacht. Die Behandlung von Pflanzen mit dem Sterilisationsmittel erfolgt am Anfang der fünften Periode der Organogenese nach Kupermann.
Zur Kontrolle der chemischen Sterilisation des Sonnenblumenpollens werden für jede Verbindung 45 behandelte Pflanzen jeder Wiederholung benutzt, wobei 15 Pflanzen von denen zwecks Selbsbestäubung isoliert werden, Blütenkorbchen anderer 15 Pflanzen mit einem Pollengemisch, gesammelt von 20 bis 25 behandelten isolierten Körbchen, bestäubt werden, und 15 Pflanzen für freie Bestäubung gelassen werden, damit das Ansetzen von Achänen mit dem Pollen der väterlichen Form kontrolliert werden kann.
Man beurteilt die Pollensterilität von Pflanzen der Sonnenblume nach der Pollenfertilität und -keimfähigkeit, nach den morphologischen Besonderheiten von Spermien und nach der Fähigkeit von Achänen zum Ansetzen bei der Bestäubung der behandelten isolierten Pflanzen mit dem Pollen der unbehandelten väterlichen Form. Die Lebensfähigkeit der Eizelle wird nach der Samenbildung von behandelten Pflanzen bei freier Bestäubung mit der väterlichen Form bestimmt.
Man behandelt die Sonnenblume Sorte BHNNMK 8931 (WNIIMK 8931) in der V. Periode der Organogenese mit 0,5%iger wäßriger Emulsion von 4-Karboxybutyldezylsulfid, mit 1%iger Emulsion der δ, δ' -Sulfonyldivaleriansäure, 2%iger Emulsion von Bis(2-äthylhexyläther) der δ, δ' -Thiodivaleriansäure; die Sonnenblume der Linie BK-373 (WK-373) mit 2%iger Emulsion von Bis(2-äthylhexyläther) der δ δ' --Thiodivaleriansäure, mit 0,2%iger Emulsion von Bis(di--n-butyläther) der δ, δ' -Thiodivaleriansäure; die Sonnenblume der Linie BK=364 (WK-365) mit 2%iger wäßriger Emulsion von Bis(2-äthylhexyläther) der δ, δ' -Thirodivaleriansäure, mit 0,2%iger Emulsion von Bis(di-n-butyläther) der δ, δ' -Thiodivaleriansäure. Die Emulsion enthält 0,1 Masse% Kalziumalkylbenzolsulfonat mit 12 bis 14 Kohlenstoffatomen und 0,01 Masse% Dimethylsulfoxid. Als Kontrolle dienen Pflanzen, behandelt mit einem Verdünner ohne Sterilisationsmittel. Die Prüfergebnisse sind in der Tabelle 17 angegeben. […] Periode der Organogenese erhalten.

The nature of the next data set: Toxicity in animal test. Conditions: rat, in vivo; für Ratten. Here is the method:
Alle erfindungsgemäßen Thiokarbonsäuren oder ihre De- rivate, die als Sterilisationsmittel zur Verwendung kommen, waren auf die Toxizität im Tierversuch geprüft. Die Prüfergebnisse haben gezeigt, daß die angegebenen Verbindungen von schwacher oder mittlerer Toxizität sind. So beträgt beispielsweise LD50 mehr als 2000 mg/kg für Ratten bei Bis (2-äthylhexyläther) der δ, δ'-Thiodivaleriansäure, bei anderen Verbindungen liegen die LD50 -Werte auf dem gleichen Niveau.

SMILES strings stand for the structures.

Consider `CCCCC(CC)COC(=O)CCCCSCCCCC(=O)OCC(CC)CCCC` (centres unmarked) [Beispiel 80, Bis(2-äthylhexyläther) der δ, δ' -Thirodivaleriansäure], for which, in the data set on Sonnenblume, the “Prozentsatz der Sterilität” value is listed as 100,0% and the “Prozentsatz des Ansetzens von Achänen bei freier Bestäubung” value is recorded as 67,9%.
On to `CCCCOC(=O)CCCCSCCCCC(=O)OCCCC` [Beispiel 81, Bis(di-n-butyläther) der δ, δ' -Thiodivaleriansäure], for which, in the data set on Sonnenblume, the “Prozentsatz der Sterilität” value is recorded as 100,0% and the “Prozentsatz des Ansetzens von Achänen bei freier Bestäubung” value is 59,3%.
The molecule `CCCCC(CC)COC(=O)CCCCSCCCCC(=O)OCC(CC)CCCC` (centres unmarked) [Bis (2-äthylhexyläther) der δ, δ'-Thiodivaleriansäure] showed an LD50 in the data set “Toxicity in animal test” greater than 2000 mg/kg.
